Source: PubChem BioAssay (NCI)
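Cells were grown in 96-well plates and exposed to each compound for 48 hours at five concentrations; endpoints were interpolated linearly between bracketing concentrations, or set to the highest concentration if not reached. GI50: concentration for 50% inhibition of growth. TGI: concentration producing complete growth inhibition.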

Key:
Assay in all cases: NCI-60 cell line screen, 48 h; in the data active = GI50 below about 0.43 µM; inactive = the rest
786-0 renal = system: 786-0 renal
A549 NSCLC = system: A549 NSCLC
ACHN renal = system: ACHN renal
CCRF-CEM leukemia = system: CCRF-CEM leukemia
COLO 205 colon = system: COLO 205 colon
DLD-1 colon = system: DLD-1 colon
DMS 114 small cell lung = system: DMS 114 small cell lung
EKVX NSCLC = system: EKVX NSCLC
HCT-116 colon = system: HCT-116 colon
HL-60(TB) leukemia = system: HL-60(TB) leukemia
HOP-18 NSCLC = system: HOP-18 NSCLC
HOP-62 NSCLC = system: HOP-62 NSCLC
HOP-92 NSCLC = system: HOP-92 NSCLC
HT29 colon = system: HT29 colon
IGROV1 ovarian = system: IGROV1 ovarian
K-562 leukemia = system: K-562 leukemia
KM12 colon = system: KM12 colon
KM20L2 colon = system: KM20L2 colon
LOX IMVI melanoma = system: LOX IMVI melanoma
LXFL 529 NSCLC = system: LXFL 529 NSCLC
M14 melanoma = system: M14 melanoma
M19-MEL melanoma = system: M19-MEL melanoma
MALME-3M melanoma = system: MALME-3M melanoma
MOLT-4 leukemia = system: MOLT-4 leukemia
NCI-H226 lung = system: NCI-H226 lung
NCI-H23 lung = system: NCI-H23 lung
NCI-H460 lung = system: NCI-H460 lung
NCI-H522 lung = system: NCI-H522 lung
OVCAR-3 ovarian = system: OVCAR-3 ovarian
OVCAR-4 ovarian = system: OVCAR-4 ovarian
OVCAR-5 ovarian = system: OVCAR-5 ovarian
OVCAR-8 ovarian = system: OVCAR-8 ovarian
RPMI-8226 leukemia = system: RPMI-8226 leukemia
RXF 393 renal = system: RXF 393 renal
RXF-631 renal = system: RXF-631 renal
SF-268 CNS = system: SF-268 CNS
SF-295 CNS = system: SF-295 CNS
SF-539 CNS = system: SF-539 CNS
SK-MEL-28 melanoma = system: SK-MEL-28 melanoma
SK-MEL-5 melanoma = system: SK-MEL-5 melanoma
SK-OV-3 ovarian = system: SK-OV-3 ovarian
SN12C renal = system: SN12C renal
SNB-19 CNS = system: SNB-19 CNS
SNB-75 CNS = system: SNB-75 CNS
SNB-78 CNS = system: SNB-78 CNS
SW-620 colon = system: SW-620 colon
TK-10 renal = system: TK-10 renal
UACC-257 melanoma = system: UACC-257 melanoma
UACC-62 melanoma = system: UACC-62 melanoma
UO-31 renal = system: UO-31 renal
A498 renal = system: A498 renal
CAKI-1 renal = system: CAKI-1 renal
DMS 273 small cell lung = system: DMS 273 small cell lung
HCC-2998 colon = system: HCC-2998 colon
HCT-15 colon = system: HCT-15 colon
SK-MEL-2 melanoma = system: SK-MEL-2 melanoma
SR leukemia = system: SR leukemia
U251 CNS = system: U251 CNS
XF 498 CNS = system: XF 498 CNS

COc1ccc2[nH]c(-c3ccccn3)cc(=O)c2c1
75.6 µM: TGI (MALME-3M melanoma)
90.9 µM: TGI (M14 melanoma)
> 100 µM: TGI (786-0 renal) | TGI (A549 NSCLC) | TGI (ACHN renal) | TGI (CCRF-CEM leukemia) | TGI (COLO 205 colon) | TGI (DLD-1 colon) | TGI (EKVX NSCLC) | TGI (HCT-116 colon) | TGI (HL-60(TB) leukemia) | TGI (HOP-18 NSCLC) | TGI (HOP-62 NSCLC) | TGI (HOP-92 NSCLC) | TGI (HT29 colon) | TGI (IGROV1 ovarian) | TGI (K-562 leukemia) | TGI (KM12 colon) | TGI (KM20L2 colon) | TGI (LOX IMVI melanoma) | TGI (LXFL 529 NSCLC) | TGI (M19-MEL melanoma) | TGI (MOLT-4 leukemia) | TGI (NCI-H226 lung) | TGI (NCI-H23 lung) | TGI (NCI-H460 lung) | TGI (OVCAR-3 ovarian) | TGI (OVCAR-4 ovarian) | TGI (OVCAR-5 ovarian) | TGI (OVCAR-8 ovarian) | TGI (RPMI-8226 leukemia) | TGI (RXF-631 renal) | TGI (SF-295 CNS) | TGI (SK-MEL-28 melanoma) | TGI (SK-MEL-5 melanoma) | TGI (SK-OV-3 ovarian) | TGI (SN12C renal) | TGI (SNB-19 CNS) | TGI (SNB-78 CNS) | TGI (SW-620 colon) | TGI (TK-10 renal) | TGI (UACC-257 melanoma) | TGI (UACC-62 melanoma) | TGI (UO-31 renal)
65.8 µM: TGI (NCI-H522 lung) | TGI (SF-268 CNS)
33.8 µM: TGI (RXF 393 renal)
91.9 µM: TGI (SF-539 CNS)
71.4 µM: TGI (DMS 114 small cell lung)
inactive: GI50 (DMS 114 small cell lung) 22.6 µM | GI50 (HCT-116 colon) 33.6 µM | GI50 (KM20L2 colon) 35.1 µM | GI50 (NCI-H226 lung) 36.6 µM | GI50 (OVCAR-3 ovarian) > 100 µM | GI50 (RXF 393 renal) 2.49 µM | GI50 (SF-268 CNS) 24.2 µM | GI50 (SF-295 CNS) 51.5 µM | GI50 (SK-MEL-5 melanoma) 28.5 µM
88 µM: TGI (SNB-75 CNS)

Cc1ccccc1-c1c(N)nc(NC#N)nc1C(=O)Nc1ccccc1
> 100 µM: TGI (786-0 renal) | TGI (A498 renal) | TGI (A549 NSCLC) | TGI (ACHN renal) | TGI (CAKI-1 renal) | TGI (CCRF-CEM leukemia) | TGI (COLO 205 colon) | TGI (DLD-1 colon) | TGI (DMS 114 small cell lung) | TGI (DMS 273 small cell lung) | TGI (EKVX NSCLC) | TGI (HCC-2998 colon) | TGI (HCT-116 colon) | TGI (HCT-15 colon) | TGI (HOP-18 NSCLC) | TGI (HOP-62 NSCLC) | TGI (HOP-92 NSCLC) | TGI (HT29 colon) | TGI (IGROV1 ovarian) | TGI (K-562 leukemia) | TGI (KM12 colon) | TGI (KM20L2 colon) | TGI (LOX IMVI melanoma) | TGI (LXFL 529 NSCLC) | TGI (M14 melanoma) | TGI (M19-MEL melanoma) | TGI (MALME-3M melanoma) | TGI (MOLT-4 leukemia) | TGI (NCI-H226 lung) | TGI (NCI-H23 lung) | TGI (NCI-H460 lung) | TGI (OVCAR-3 ovarian) | TGI (OVCAR-4 ovarian) | TGI (OVCAR-5 ovarian) | TGI (RPMI-8226 leukemia) | TGI (RXF 393 renal) | TGI (RXF-631 renal) | TGI (SF-268 CNS) | TGI (SF-295 CNS) | TGI (SF-539 CNS) | TGI (SK-MEL-2 melanoma) | TGI (SK-MEL-28 melanoma) | TGI (SK-MEL-5 melanoma) | TGI (SK-OV-3 ovarian) | TGI (SN12C renal) | TGI (SNB-19 CNS) | TGI (SNB-75 CNS) | TGI (SNB-78 CNS) | TGI (SR leukemia) | TGI (SW-620 colon) | TGI (TK-10 renal) | TGI (U251 CNS) | TGI (UACC-257 melanoma) | TGI (UACC-62 melanoma) | TGI (UO-31 renal)

CCCCCCCCCCCCCCCCCC(=O)OCC(CN(C)CCN(C)C)OC(=O)CCCCCCCCCCCCCCCCC (stereo not drawn)
83.7 µM: TGI (MOLT-4 leukemia)
> 100 µM: TGI (786-0 renal) | TGI (A498 renal) | TGI (A549 NSCLC) | TGI (ACHN renal) | TGI (CAKI-1 renal) | TGI (CCRF-CEM leukemia) | TGI (COLO 205 colon) | TGI (DLD-1 colon) | TGI (DMS 114 small cell lung) | TGI (DMS 273 small cell lung) | TGI (EKVX NSCLC) | TGI (HCC-2998 colon) | TGI (HCT-116 colon) | TGI (HCT-15 colon) | TGI (HOP-62 NSCLC) | TGI (HOP-92 NSCLC) | TGI (HT29 colon) | TGI (IGROV1 ovarian) | TGI (K-562 leukemia) | TGI (KM12 colon) | TGI (KM20L2 colon) | TGI (LOX IMVI melanoma) | TGI (LXFL 529 NSCLC) | TGI (M14 melanoma) | TGI (MALME-3M melanoma) | TGI (NCI-H226 lung) | TGI (NCI-H23 lung) | TGI (NCI-H460 lung) | TGI (NCI-H522 lung) | TGI (OVCAR-3 ovarian) | TGI (OVCAR-4 ovarian) | TGI (OVCAR-5 ovarian) | TGI (OVCAR-8 ovarian) | TGI (RPMI-8226 leukemia) | TGI (RXF 393 renal) | TGI (RXF-631 renal) | TGI (SF-268 CNS) | TGI (SF-295 CNS) | TGI (SK-MEL-2 melanoma) | TGI (SK-MEL-28 melanoma) | TGI (SK-MEL-5 melanoma) | TGI (SK-OV-3 ovarian) | TGI (SN12C renal) | TGI (SNB-19 CNS) | TGI (SNB-75 CNS) | TGI (SNB-78 CNS) | TGI (SW-620 colon) | TGI (TK-10 renal) | TGI (U251 CNS) | TGI (UACC-257 melanoma) | TGI (UACC-62 melanoma) | TGI (UO-31 renal)
64.2 µM: TGI (SR leukemia)
89 µM: TGI (HOP-18 NSCLC)

CC(C)C(=O)/C=C/c1ccccc1
67.5 µM: TGI (CCRF-CEM leukemia)
> 100 µM: TGI (786-0 renal) | TGI (A498 renal) | TGI (A549 NSCLC) | TGI (ACHN renal) | TGI (COLO 205 colon) | TGI (DLD-1 colon) | TGI (DMS 273 small cell lung) | TGI (HCC-2998 colon) | TGI (HCT-116 colon) | TGI (HL-60(TB) leukemia) | TGI (HOP-18 NSCLC) | TGI (HOP-92 NSCLC) | TGI (HT29 colon) | TGI (IGROV1 ovarian) | TGI (K-562 leukemia) | TGI (KM12 colon) | TGI (KM20L2 colon) | TGI (LOX IMVI melanoma) | TGI (LXFL 529 NSCLC) | TGI (M14 melanoma) | TGI (M19-MEL melanoma) | TGI (MOLT-4 leukemia) | TGI (NCI-H23 lung) | TGI (NCI-H460 lung) | TGI (NCI-H522 lung) | TGI (OVCAR-3 ovarian) | TGI (OVCAR-4 ovarian) | TGI (OVCAR-5 ovarian) | TGI (RPMI-8226 leukemia) | TGI (RXF 393 renal) | TGI (SF-268 CNS) | TGI (SF-295 CNS) | TGI (SF-539 CNS) | TGI (SK-MEL-2 melanoma) | TGI (SK-MEL-28 melanoma) | TGI (SK-MEL-5 melanoma) | TGI (SK-OV-3 ovarian) | TGI (SN12C renal) | TGI (SNB-19 CNS) | TGI (SNB-75 CNS) | TGI (SNB-78 CNS) | TGI (SR leukemia) | TGI (SW-620 colon) | TGI (U251 CNS) | TGI (UACC-257 melanoma) | TGI (UACC-62 melanoma) | TGI (UO-31 renal) | TGI (XF 498 CNS)
